Values joined by “and” are separate entries in the source; they are usually repeats but may differ in a detail not shown here. Identical values can stand only once. Like-named read-outs stand apart in the source and are kept apart here.
Tested on: metastatic castration-resistant prostate cancer (mCRPC) with DNA-repair anomalies
Description: The planned sample size was approximately 120 subjects with measurable disease who were biomarker-positive (approximately 75 subjects with DNA repair anomalies in BRCA [BRCA1 or BRCA2] and approximately 45 subjects with biallelic DNA-repair anomalies in non-BRCA [ATM, FANCA, PALB2, CHEK2, BRIP1, or HDAC2]).
Efficacy objectives were evaluated for subjects meeting the biomarker selection criteria described in the protocol. All subjects were monitored for safety during the study period, and up to 30 days after the last dose of study drug. Treatment continued until disease progression, unacceptable toxicity, death, or termination of the study by the sponsor.
Diagnosis and Main Criteria for Inclusion: The target population consisted of male subjects over the age of 18 years with mCRPC and DNA-repair anomalies (biallelic mutations and germline pathogenic mutations only for BRCA1 or BRCA2 mutations) who had received at least 1 prior taxane-based chemotherapy and at least 1 prior AR targeted therapy (second-generation or later). Subjects were asked to provide a tumor tissue sample (archival or recently collected, if available), and a blood sample for analysis of DNA-repair anomalies using a sponsor-validated assay.
Criteria for Evaluation: Efficacy assessments included chest, abdomen, and pelvis CT or MRI scans and whole-body bone scans (^99mTc) to evaluate objective response and disease progression.
The primary endpoint was ORR and summarized for the BRCA analysis set along with the 95% 2-sided exact CI. In addition, the counts and percentage of subjects in each response category (CR. PR, etc.) were tabulated. ORR in non-BRCA subjects was analyzed in the same way.
Descriptive summaries of CTC response were generated for BRCA and non-BRCA analysis sets, measurable and non-measurable subgroups and tabulated with its 2-sided 95% exact CI. Waterfall plots of percent change in CTC were also presented, showing the percentage change in CTC counts from baseline to 8 weeks, as well as maximal CTC count declines. All time to event secondary endpoints were evaluated using Kaplan-Meier method for BRCA and non-BRCA analysis sets. Median time to event and the corresponding 95% CI were provided. Descriptive summaries were provided for BRCA and non-BRCA analysis sets.
Time to degradation was determined using the following meaningful change threshold values: FACT-P Total (10-point reduction from baseline), EQ-5D-5L Index (0.09-point reduction from baseline). EQ-5D-5L VAS (10-point reduction from baseline), and BPI SF worst pain intensity item (30% reduction from baseline).
The primary endpoint was ORR, defined as the proportion of subjects with BRCA DNA-repair anomalies and measurable disease whose best response was either CR or PR as defined by RECIST 1.1 (Eisenhauer et al 2009) and who had no evidence of bone progression according to the PCWG3 criteria (Scher et al 2016).
ORR final analysis was performed approximately 6 months from Cycle 1 Day 1 of the last subject with a BRCA DNA-repair anomaly and measurable disease. Objective response as determined by investigator assessment was considered as the primary analysis.
Subjects who discontinued the study without a response assessment were considered as non-responders in the analysis. The objective response rate was calculated and its 2-sided 95% exact CI presented. In addition, the counts and percentage of subjects in each response category (CR, PR, etc.) were tabulated.
The following analyses of CTC response were performed for BRCA and non-BRCA analysis sets, measurable and non-measurable subgroups: • Descriptive summaries • CTC response rate was tabulated with its 2-sided 95% exact CI
All time to event secondary endpoints were evaluated using Kaplan-Meier method for BRCA and non-BRCA analysis sets. Median time to event and the corresponding 95% CI were provided. Descriptive summaries were provided for BRCA and non-BRCA analysis sets.

[1] = ALL, ITT (N=223), 300 mg once daily
[2] = ALL, ITT (N=223), 300 mg once daily, listed as niraparib
[3] = ALL, ITT (N=223), Kaplan-Meier, 300 mg once daily
[4] = ALL, ITT with baseline CTC >0 (N=202), 300 mg once daily
[5] = ALL, measurable ITT (N=123), 300 mg once daily
[6] = ALL, measurable ITT responders (N=31), 300 mg once daily
[7] = ALL, measurable ITT responders (N=31), Kaplan-Meier, 300 mg once daily
[8] = BRCA (n = 142), 300 mg once daily
[9] = BRCA, ITT (N=142), 300 mg once daily
[10] = BRCA, ITT (N=142), 300 mg once daily, listed as niraparib
[11] = BRCA, ITT (N=142), Kaplan-Meier, 300 mg once daily

## NC(=O)c1cccc2cn(-c3ccc([C@@H]4CCCNC4)cc3)nc12 [Niraparib, 2-[4-[(3S)-piperidin-3-yl]phenyl]-2H-indazole-7-carboxamide]
2 BRCA subjects with measurable disease and complete response, 300 mg once daily
  Duration of complete response in individual subjects: 9.7 months and 9.5 months
[1]
  Time to PSA progression: 6-month event-free rate: 0.328
  Time to PSA progression: 12-month event-free rate: 0.053
  Time to PSA progression: Censored, % of subjects: (44.4%)
  Time to PSA progression: Censored, number of subjects: 99
  Time to PSA progression: Event, % of subjects: (55.6%)
  Time to PSA progression: Event, number of subjects: 124
  Time to radiographic progression: 6-month event-free rate: 0.494
  Time to radiographic progression: 12-month event-free rate: 0.170
  Time to radiographic progression: 18-month event-free rate: 0.034
  Time to radiographic progression: Censored, % of subjects: (39.9%)
  Time to radiographic progression: Censored, number of subjects: 89
  Time to radiographic progression: Event, % of subjects: (60.1%)
  Time to radiographic progression: Event, number of subjects: 134
  Time to symptomatic skeletal event: 6-month event-free rate: 0.830
  Time to symptomatic skeletal event: 12-month event-free rate: 0.511
  Time to symptomatic skeletal event: 18-month event-free rate: 0.297
  Time to symptomatic skeletal event: 24-month event-free rate: 0.297
  Time to symptomatic skeletal event: Censored, % of subjects: (70.9%)
  Time to symptomatic skeletal event: Censored, number of subjects: 158
  Time to symptomatic skeletal event: Event, % of subjects: (29.1%)
  Time to symptomatic skeletal event: Event, number of subjects: 65
  rPFS: 6-month event-free rate: 0.475
  rPFS: 12-month event-free rate: 0.155
  rPFS: 18-month event-free rate: 0.031
  rPFS: Censored, % of subjects: (35.4%)
  rPFS: Censored, number of subjects: 79
  rPFS: Event, % of subjects: (64.6%)
  rPFS: Event, number of subjects: 144
[2]
  Time to PSA progression: Event, % of subjects: 56%
  Time to radiographic progression: Event, % of subjects: 60%
  Time to symptomatic skeletal event: Event, % of subjects: 29%
  Time to symptomatic skeletal event: Event, number of subjects: Sixty-five
  rPFS: Event, % of subjects: 65%
[3]
  Time to PSA progression: time to event, 25th percentile: 2.83 months
  Time to PSA progression: time to event, Median: 4.63 months
  Time to radiographic progression: time to event, 25th percentile: 2.76 months
  Time to radiographic progression: time to event, 75th percentile: 11.07 months
  Time to radiographic progression: time to event, Median: 5.78 months
  Time to symptomatic skeletal event (SSE): time to event, Median: 12.88 months
  Time to symptomatic skeletal event: time to event, 25th percentile: 6.97 months
  rPFS: time to event, 25th percentile: 2.07 months
  rPFS: time to event, 75th percentile: 11.01 months
[4]
  CTC Response (CTC = 0 at week 8), % of subjects: (18.3%)
  CTC Response (CTC = 0 at week 8), number of subjects: 37
[5]
  Best Overall Response: Complete Response (CR), % of subjects: 1.6%
  Best Overall Response: Complete Response (CR), number of subjects: 2
  Best Overall Response: Not Available (NA), % of subjects: 12.2%
  Best Overall Response: Not Available (NA), number of subjects: 15
  Best Overall Response: Partial Response (PR), % of subjects: 23.6%
  Best Overall Response: Partial Response (PR), number of subjects: 29
  Best Overall Response: Progressive Disease (PD), % of subjects: 25.2%
  Best Overall Response: Progressive Disease (PD), number of subjects: 31
  Best Overall Response: Stable Disease (SD), % of subjects: 37.4%
  Best Overall Response: Stable Disease (SD), number of subjects: 46
  ORR (objective response rate, RECIST 1.1, no bone progression per PCWG3), % of subjects: 25.2%
  ORR (objective response rate, RECIST 1.1, no bone progression per PCWG3), number of subjects: 31
  Objective response confirmed: Complete Response (CR), % of subjects: 1.6%
  Objective response confirmed: Complete Response (CR), number of subjects: 2
  Objective response confirmed: Partial Response (PR), % of subjects: 23.6%
  Objective response confirmed: Partial Response (PR), number of subjects: 29
[6]
  Duration of objective response: 6-month event-free rate: 0.471
  Duration of objective response: 12-month event-free rate: 0.000
  Duration of objective response: 18-month event-free rate: 0.000
  Duration of objective response: 24-month event-free rate: 0.000
  Duration of objective response: Censored, % of subjects: (22.6%)
  Duration of objective response: Censored, number of subjects: 7
  Duration of objective response: Event, % of subjects: (77.4%)
  Duration of objective response: Event, number of subjects: 24
[7]
  Duration of objective response: time to event, 25th percentile: 3.75 months
  Duration of objective response: time to event, 75th percentile: 7.20 months
  Duration of objective response: time to event, Median: 5.55 months
[8]
  CRR (composite response rate), % of subjects: 57.7%
  CRR (composite response rate), number of subjects: 82
  PSA50 (≥50% decline in prostate-specific antigen), % of subjects: 43.0%
  PSA50 (≥50% decline in prostate-specific antigen), number of subjects: 61
BRCA vs non-BRCA cohort
  Median rPFS in the BRCA cohort relative to the non-BRCA cohort: approximately double
[9]
  Time to PSA progression: 6-month event-free rate: 0.393
  Time to PSA progression: 12-month event-free rate: 0.067
  Time to PSA progression: Censored, % of subjects: (40.1%)
  Time to PSA progression: Event, % of subjects: (59.9%)
  Time to radiographic progression: 6-month event-free rate: 0.593
  Time to radiographic progression: 12-month event-free rate: 0.234
  Time to radiographic progression: 18-month event-free rate: 0.046
  Time to radiographic progression: Censored, % of subjects: (43.0%)
  Time to radiographic progression: Censored, number of subjects: 61
  Time to radiographic progression: Event, % of subjects: (57.0%)
  Time to radiographic progression: Event, number of subjects: 81
  Time to symptomatic skeletal event: 6-month event-free rate: 0.844
  Time to symptomatic skeletal event: 12-month event-free rate: 0.543
  Time to symptomatic skeletal event: 18-month event-free rate: 0.323
  Time to symptomatic skeletal event: 24-month event-free rate: 0.323
  Time to symptomatic skeletal event: Censored, % of subjects: (67.6%)
  Time to symptomatic skeletal event: Censored, number of subjects: 96
  Time to symptomatic skeletal event: Event, % of subjects: (32.4%)
  rPFS: 6-month event-free rate: 0.572
  rPFS: 12-month event-free rate: 0.215
  rPFS: 18-month event-free rate: 0.043
  rPFS: Censored, % of subjects: (38.7%)
  rPFS: Censored, number of subjects: 55
  rPFS: Event, % of subjects: (61.3%)
  rPFS: Event, number of subjects: 87
[10]
  Time to PSA progression: Event, % of subjects: 60%
  rPFS: Event, % of subjects: 61%
[11]
  Time to PSA progression: time to event, 25th percentile: 3.48 months
  Time to PSA progression: time to event, 75th percentile: 11.07 months

From patent US20240325369A1 (priority 2021, published 2024)
